According to US8124760B2, “Pyridyl-triazolopyrimidine derivative or its salt, pesticide containing it and its production process” (Ishihara Sangyo Kaisha, Ltd., priority 2007, dated 2012):
Where two headings read alike, the source gives them in different places.

Tests used:
Type in all cases: in vivo
[1] = test system: Brown Planthopper (Nilaparvata lugens); assay: Test on controlling effects against brown planthopper (rice seedling dip)
Text: Test on Controlling Effects Against Brown Planthopper (Nilaparvata lugens)
Rice seedling was dipped for about 10 seconds in an insecticidal solution prepared to bring the concentration of the compound of the present invention to 200 ppm and then dried in air, its root was wrapped with a wet absorbent cotton, and the seedling was put into a test tube. Then, 10 second-third instar nymphs of Brown Planthopper were released therein, and the test tube was covered with a gauze and left in a constant temperature chamber at 25° C. with lightening. On the 5th day after the release, dead nymphs were counted, and the mortality was calculated by the following equation.

[2] = test system: Green Peach Aphid (Myzus persicae); assay: Test on controlling effects against green peach aphid (leaf dip); details: foliar, 120 h, Japanese radish leaf dipped about 10 seconds, first instar nymphs, 5 days after the treatment, 25° C.
Text: Test on Controlling Effects Against Green Peach Aphid (Myzus persicae)
A Japanese radish leaf was inserted in a test tube in which water was put, and about 20 first instar nymphs of green peach aphid were released on the leaf. On the next day, the number of nymphs parasitic on the leaf was counted, and then the leaf was dipped for about 10 seconds in an insecticidal solution prepared to bring the concentration of the compound of the present invention to 200 ppm, dried in air and left in a constant temperature chamber at 25° C. with lightening. Dead nymphs were counted 5 days after the treatment, and the mortality was calculated by the following equation. The insects dropped from the leaf or presented toxic symptom were counted as dead insects. […] Mortality (%)=(1−(number of survived insects/number of treated insects))×100

[3] = test system: Silverleaf Whitefly (Bemisia Argentifolii); assay: Test on controlling effects against silverleaf whitefly (cucumber seedling spray); details: 168 h, hand spray to cucumber seedling, first-second instar nymphs, 7 days after the treatment, 25° C., read-out: protective value
Method: Test on Controlling Effects Against Silverleaf Whitefly (Bemisia Argentifolii) An insecticidal solution prepared to bring the concentration of the compound of the present invention to 200 ppm was applied by a hand spray to cucumber seedling planted in a pot on which first-second instar nymphs of silverleaf whitefly were parasitic, and dried in air. Thereafter, the cucumber seedling was left in a constant temperature chamber at 25° C. with lightening. The number of old instar nymphs was counted 7 days after the treatment, and the protective value (%) was obtained by the following equation. […] Protective value (%)=(1−((Ta×Cb)/(Tb×Ca)))×100 Ta: The number of old instar nymphs after the treatment at the treated cucumber seedling Tb: The number of first-second instar nymphs before the treatment at the treated cucumber seedling Ca: The number of old instar nymphs after the treatment at the untreated cucumber seedling Cb: the number of first-second instar nymphs before the treatment at the untreated cucumber seedling

[4] = 200 ppm, rice seedling dipped about 10 seconds, second-third instar nymphs, 5th day after the release, 25° C., read-out: mortality

Compound	mortality at 200 ppm [1, 4] [%]	mortality at 200 ppm [2] [%]	pest or weed control at 200 ppm [3] [%]	mortality at 200 ppm [1] [%]
FC(F)(F)c1cnc(-c2ccnc3ncnn23)c(Br)c1 [compound No. 4, 7-(3-bromo-5-(trifluoromethyl)pyridin-2-yl)-[1,2,4]triazolo[1,5-a]pyrimidine]	≥ 90	≥ 90	≥ 80	–
CC(C)(C)c1cc(-c2ncc(C(F)(F)F)cc2Cl)n2ncnc2n1 [compound 89]	≥ 90	–	–	–
FC(F)(F)c1cnc(-c2cc(C(F)(F)F)nc3ncnn23)c(Cl)c1 [compound No. 20, 7-(3-chloro-5-(trifluoromethyl)pyridin-2-yl)5-(trifluoromethyl)-[1,2,4]triazolo[1,5-a]pyrimidine]	≥ 90	≥ 90	≥ 80	–
Cc1cc(-c2ncc(C(F)(F)F)cc2[N+](=O)[O-])n2ncnc2n1 [compound 78]	–	≥ 90	–	–
Cc1cc(-c2ncc(Cl)cc2C(F)(F)F)n2ncnc2n1 [compound 57]	≥ 90	–	–	–
CCCc1cc(-c2ncc(C(F)(F)F)cc2Cl)n2ncnc2n1 [compound 17]	≥ 90	≥ 90	≥ 80	–
CCc1cc(C(F)(F)F)cnc1-c1cc(C)nc2ncnn12 [compound 79]	≥ 90	≥ 90	–	–
N#Cc1cc(-c2ncc(C(F)(F)F)cc2Cl)n2ncnc2n1 [compound 70]	≥ 90	–	–	–
FC(F)(F)c1cnc(-c2cc(C3CCCC3)nc3ncnn23)c(Cl)c1 [compound 107]	≥ 90	–	–	–
O=[N+]([O-])c1cc(C(F)(F)F)cnc1-c1ccnc2ncnn12 [compound 12]	≥ 90	–	≥ 80	–
Cc1cc(-c2nc(Cl)c(C(F)(F)F)cc2Cl)n2ncnc2n1 [compound 68]	≥ 90	≥ 90	–	–
Cc1cc(-c2ncc(C(F)(F)F)cc2Cl)n2ncnc2n1 [compound No. 19, 7-(3-chloro-5-(trifluoromethyl)pyridin-2-yl)-5-methyl-[1,2,4]triazolo[1,5-a]pyrimidine]	≥ 90	≥ 90	≥ 80	–
FC(F)(F)c1cnc(-c2cc(C3CCC3)nc3ncnn23)c(Cl)c1 [compound 99]	≥ 90	–	–	–
CC(C)c1cc(-c2ncc(C(F)(F)F)cc2Cl)n2ncnc2n1 [compound 80]	≥ 90	≥ 90	≥ 80	–
FC(F)(F)c1cnc(-c2cc(C3CC3)nc3ncnn23)c(Cl)c1 [compound No. 82, 7-(3-chloro-5-(trifluoromethyl)pyridin-2-yl)-5-cyclopropyl-[1,2,4]triazolo[1,5-a]pyrimidine]	≥ 90	≥ 90	≥ 80	–
Cc1cc(-c2ncc(C(F)(F)F)cc2Br)n2ncnc2n1 [compound 15]	≥ 90	≥ 90	≥ 80	–

Compound	mortality at 200 ppm [1, 4] [%]	mortality at 200 ppm [2] [%]	pest or weed control at 200 ppm [3] [%]	mortality at 200 ppm [1] [%]
CC1(c2cc(-c3ncc(C(F)(F)F)cc3Cl)n3ncnc3n2)CC1 [compound 98]	≥ 90	–	–	–
FC(F)(F)c1cnc(-c2cc(-c3ccco3)nc3ncnn23)c(Cl)c1 [compound 91]	–	–	–	≥ 90
Cc1cc(-c2ncc(C(F)(F)F)cc2-c2ccccc2)n2ncnc2n1 [compound 52]	≥ 90	–	–	–
Cc1cc(-c2ncc(C(F)(F)F)cc2I)n2ncnc2n1 [compound 41]	≥ 90	≥ 90	–	–
N#Cc1cc(C(F)(F)F)cnc1-c1ccnc2ncnn12 [compound 14]	–	–	≥ 80	–
CCc1cc(-c2ncc(C(F)(F)F)cc2Cl)n2ncnc2n1 [compound No. 16, 7-(3-chloro-5-(trifluoromethyl)pyridin-2-yl)-5-ethyl-[1,2,4]triazolo[1,5-a]pyrimidine]	≥ 90	≥ 90	≥ 80	–
CCCCc1cc(-c2ncc(C(F)(F)F)cc2Cl)n2ncnc2n1 [compound 83]	≥ 90	–	–	–
Cc1cc(-c2nc(Cl)c(C(F)(F)F)cc2F)n2ncnc2n1 [compound 105]	≥ 90	–	–	–
Cc1cc(-c2ncc(C(F)(F)F)cc2C#N)n2ncnc2n1 [compound 43]	≥ 90	≥ 90	–	–
Cc1cc(-c2ncc(C(F)(F)F)cc2C)n2ncnc2n1 [compound 44]	≥ 90	≥ 90	≥ 80	–
CC(C)c1cc(-c2ncc(C(F)(F)F)cc2Br)n2ncnc2n1 [compound No. 95, 7-(3-bromo-5-(trifluoromethyl)pyridin-2-yl)-5-isopropyl-[1,2,4]triazolo[1,5-a]pyrimidine]	≥ 90	≥ 90	–	–
Cc1cc(-c2ccc(C(F)(F)F)cn2)n2ncnc2n1 [compound 18]	–	≥ 90	≥ 80	–
Fc1cc(C(F)(F)F)cnc1-c1ccnc2ncnn12 [compound 5]	–	–	≥ 80	–
Cc1cc(-c2cc(C(F)(F)F)cc(C(F)(F)F)n2)n2ncnc2n1 [compound 51]	–	≥ 90	–	–
FC(F)(F)c1cnc(-c2cc(C3CC3)nc3ncnn23)c(Br)c1 [compound 94]	≥ 90	≥ 90	≥ 80	–
